Consider 33 compounds from ChEMBL document CHEMBL5634136 (Eur J Med Chem, 2023).

A word on the IC50: it is the concentration that gives 50% inhibition.

Data set [1] is described as follows: Antiproliferative activity against mouse KC-0116 cells assessed as inhibition of cell growth incubated for 72 hrs by MTT assay. It counts as functional, cell-based. Conditions: KC-0116, 72 h.
The nature of data set [2]: Antiproliferative activity against mouse KC-0122 cells assessed as inhibition of cell growth incubated for 72 hrs by MTT assay. Type of data set: functional, cell-based. Conditions: KC-0122, 72 h. In general terms: Tetrazolium assays rely on reduction of a dye to a coloured formazan, in cell work by metabolically active cells.
Data set [3] deals with Epidermal growth factor receptor (Mus musculus) (UniProt Q01279). Kind of data set: Inhibition of EGFR in mouse KC-0122 cells assessed as downregulation of AKT protein expression level incubated for 24 hrs by Western blotting analysis. It counts as cell-based. Background: A western blot detects proteins with antibodies after separation by electrophoresis.
Sequence of Epidermal growth factor receptor (Mus musculus) (Q01279 whole entry): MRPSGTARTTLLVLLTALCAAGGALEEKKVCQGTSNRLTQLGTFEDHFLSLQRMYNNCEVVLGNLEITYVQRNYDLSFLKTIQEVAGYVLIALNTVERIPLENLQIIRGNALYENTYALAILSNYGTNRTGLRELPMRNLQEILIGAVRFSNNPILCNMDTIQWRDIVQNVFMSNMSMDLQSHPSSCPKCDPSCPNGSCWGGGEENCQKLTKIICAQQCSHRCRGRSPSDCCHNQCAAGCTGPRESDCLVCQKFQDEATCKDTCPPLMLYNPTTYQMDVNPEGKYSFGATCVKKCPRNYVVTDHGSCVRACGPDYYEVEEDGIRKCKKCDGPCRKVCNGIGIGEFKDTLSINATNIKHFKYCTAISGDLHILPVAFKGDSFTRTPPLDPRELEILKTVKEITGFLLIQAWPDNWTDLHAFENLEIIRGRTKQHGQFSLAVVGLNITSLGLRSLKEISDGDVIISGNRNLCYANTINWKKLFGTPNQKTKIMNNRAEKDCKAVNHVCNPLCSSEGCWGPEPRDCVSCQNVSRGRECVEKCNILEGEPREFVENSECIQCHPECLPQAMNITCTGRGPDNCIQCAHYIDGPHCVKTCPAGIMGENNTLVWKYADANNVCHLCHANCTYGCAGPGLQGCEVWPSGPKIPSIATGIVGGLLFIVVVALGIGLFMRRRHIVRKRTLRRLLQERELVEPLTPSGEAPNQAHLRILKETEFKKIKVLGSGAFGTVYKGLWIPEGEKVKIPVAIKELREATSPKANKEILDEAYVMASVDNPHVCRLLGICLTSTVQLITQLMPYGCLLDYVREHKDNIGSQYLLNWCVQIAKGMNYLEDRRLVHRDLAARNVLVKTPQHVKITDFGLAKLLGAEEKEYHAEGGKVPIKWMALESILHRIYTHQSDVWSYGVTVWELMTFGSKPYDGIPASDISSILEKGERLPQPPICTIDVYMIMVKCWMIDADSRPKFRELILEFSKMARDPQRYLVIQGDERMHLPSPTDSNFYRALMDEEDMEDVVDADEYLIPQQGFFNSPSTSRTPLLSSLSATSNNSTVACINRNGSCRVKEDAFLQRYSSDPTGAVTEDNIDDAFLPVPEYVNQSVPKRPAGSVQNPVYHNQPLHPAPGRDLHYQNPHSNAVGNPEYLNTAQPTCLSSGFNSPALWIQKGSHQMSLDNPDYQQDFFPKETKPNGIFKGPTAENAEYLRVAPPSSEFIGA
The target is the same in data set [4]. The data set can be described thus: Inhibition of EGFR in mouse KC-0122 cells assessed as downregulation of EGFR phosphorylation level incubated for 24 hrs by Western blotting analysis. Type of data set: cell-based.
Data set [5] shares this target. Kind of data set: Inhibition of EGFR in mouse KC-0116 cells assessed as downregulation of EGFR phosphorylation level incubated for 24 hrs by Western blotting analysis. Type of data set: cell-based.
The test system of data set [6] is A-431. The data set can be described thus: Antiproliferative activity against human A-431 cells harboring wild type EGFR assessed as inhibition of cell growth incubated for 72 hrs by MTT assay. It counts as functional, cell-based. Conditions: A-431, 72 h.
Data set [7] concerns HCC827. The data set can be described thus: Antiproliferative activity against human HCC827 cells harboring EGFR Del19 mutant assessed as inhibition of cell growth incubated for 72 hrs by MTT assay. To be noted: HCC827, 72 h. Type of data set: functional, cell-based.
For data set [8], the target named is Epidermal growth factor receptor (Mus musculus) (UniProt Q01279). Kind of data set: Inhibition of EGFR in mouse KC-0116 cells assessed as downregulation of ERK protein expression level incubated for 24 hrs by Western blotting analysis. It counts as cell-based.
For data set [9] the target is unchanged. The data set can be described thus: Inhibition of EGFR in mouse KC-0116 cells assessed as downregulation of AKT protein expression level incubated for 24 hrs by Western blotting analysis. It counts as cell-based.
Data set [10] deals with HepG2. The data set can be described thus: Antiproliferative activity against human HepG2 cells harboring VEGFR assessed as inhibition of cell growth incubated for 72 hrs by MTT assay. Type of data set: functional, cell-based. Conditions: HepG2, 72 h.
Data set [11] has as its target Epidermal growth factor receptor (Mus musculus) (UniProt Q01279). Kind of data set: Inhibition of EGFR in mouse KC-0122 cells assessed as downregulation of ERK protein expression level incubated for 24 hrs by Western blotting analysis. It counts as cell-based.
Data set [12] has as its system NCI-H1975. Kind of data set: Antiproliferative activity against human NCI-H1975 cells harboring EGFR L858R/T790M mutant assessed as inhibition of cell growth incubated for 72 hrs by MTT assay. It counts as functional, cell-based. Conditions: NCI-H1975, 72 h.
Data set [13] is described as follows: Induction of apoptosis in mouse KC-0116 cells assessed as early apoptotic cells at 1 uM incubated for 48 hrs by annexin V-FITC/ PI staining based flow cytometry (reference value: 8.09 %). Type of data set: functional. (In general: A flow cytometer gives signals particle by particle.)
A short description of data set [14]: Induction of apoptosis in mouse KC-0116 cells assessed as necrotic cells at 0.3 uM incubated for 48 hrs by annexin V-FITC/ PI staining based flow cytometry (reference value: 0.04 %). It counts as functional.
The nature of data set [15]: Induction of apoptosis in mouse KC-0116 cells assessed as viable cells at 1 uM incubated for 48 hrs by annexin V-FITC/ PI staining based flow cytometry (reference value: 93.27 %). Type of data set: functional.
Data set [16] in a line: Induction of apoptosis in mouse KC-0116 cells assessed as late apoptotic cells at 1 uM incubated for 48 hrs by annexin V-FITC/ PI staining based flow cytometry (reference value: 1 %). It counts as functional.
The nature of data set [17]: Toxicity in BALB/c mouse xenografted with mouse KC-0116 cells assessed as change in body weight at 10 mg/kg,po administrated once daily for 10 days. To be noted: in vivo, 240 h, time 10 day. It counts as organism-based.
Data set [18] can be described thus: Induction of apoptosis in mouse KC-0116 cells assessed as late apoptotic cells at 0.3 uM incubated for 48 hrs by annexin V-FITC/ PI staining based flow cytometry (reference value: 1 %). It counts as functional.
Data set [19] is described as follows: Induction of apoptosis in mouse KC-0116 cells assessed as necrotic cells at 1 uM incubated for 48 hrs by annexin V-FITC/ PI staining based flow cytometry (reference value: 0.04 %). Type of data set: functional.
Data set [20] can be described thus: Induction of apoptosis in mouse KC-0116 cells assessed as viable cells at 0.3 uM incubated for 48 hrs by annexin V-FITC/ PI staining based flow cytometry (reference value: 93.27 %). It counts as functional.
Data set [21] can be described thus: Induction of apoptosis in mouse KC-0116 cells assessed as early apoptotic cells at 0.3 uM incubated for 48 hrs by annexin V-FITC/ PI staining based flow cytometry (reference value: 8.09 %). Type of data set: functional.

Take `COc1cc(N(C)CCN(C)C)c(NC(=O)CNS(C)(=O)=O)cc1Nc1nccc(-c2cn(C)c3ccccc23)n1`: the values for the IC50 in data set [1] and in [2] were 1.55 µM and 1.17 µM, respectively.
For the compound `CN(C)C1CCN(c2ccc(Nc3nccc(-n4cc(NC(=O)c5ccccc5)cn4)n3)cc2NS(C)(=O)=O)CC1`, the IC50 in [1] was 0.52 µM; in data set [2] it was 0.49 µM.
On to `COc1cc(N2CCN(C)CC2)c(NC(=O)CN)cc1Nc1nccc(-c2cn(C)c3ccccc23)n1`, for which the IC50 in data set [1] turned out to be 1.65 µM; in data set [2] it was 1.17 µM.
Turning to `CC(=O)N1CCN(c2ccc(Nc3nccc(-c4cn(C)c5ccccc45)n3)cc2)CC1`, the IC50 in data set [1] was 1.05 µM; in data set [2] it was 1.5 µM.
For `CN(C)C1CCN(c2ccc(Nc3nccc(-c4cn(C)c5ccccc45)n3)cc2NC(=O)CN)CC1` the same measures were 0.44 µM and 0.46 µM.
For the compound `COc1cc(N(C)CCN(C)C)c(NC(=O)CNC(C)=O)cc1Nc1nccc(-c2cn(C)c3ccccc23)n1`, the IC50 in data set [1] was 1.98 µM; in data set [2], 1.45 µM.
For the compound `Cn1cc(-c2ccnc(Nc3ccc(N4CCCCC4)cc3)n2)c2ccccc21`, the IC50 in data set [1] and in [2] was over 10 µM each time.
Turning to `CN1CCN(C2CCN(c3ccc(Nc4nccc(-c5cn(C)c6ccccc56)n4)cc3NS(=O)(=O)C3CC3)CC2)CC1`, the inhibition result in [3], in data set [4], in data set [5], in data set [8], in data set [9] and in data set [11] was “Dose-Dependent Effect” throughout. The IC50 was 0.17 µM in data set [1]; 2.13 µM in data set [6]; 0.31 µM in data set [7]; 0.2 µM in data set [2]; 1.5 µM in data set [10]; 1.02 µM in data set [12].
As to `Cn1cc(-c2ccnc(Nc3cccc(NS(=O)(=O)C4CC4)c3)n2)c2ccccc21`, the figures for the IC50 in data set [1] and in [2] were 0.58 µM and 1.2 µM, respectively.
Consider `CN(C)C1CCN(c2ccc(Nc3nccc(-c4cn(C)c5ccccc45)n3)cc2)CC1`, for which the IC50 in data set [1] came to 0.4 µM; in [2], 0.45 µM.
Consider `COc1cc(N(C)CCN(C)C)c(NC(=O)CO)cc1Nc1nccc(-c2cn(C)c3ccccc23)n1`, for which the IC50 in data set [1] turned out to be 1.39 µM; in data set [2], 3.09 µM.
With `COCC(=O)Nc1cc(Nc2nccc(-c3cn(C)c4ccccc34)n2)c(OC)cc1N1CCC(N(C)C)CC1`, the figures for the IC50 in data set [1] and in [2] were 0.46 µM and 0.45 µM, respectively.
Regarding `COc1cc(N(C)CCN(C)C)c(NC(=O)CN)cc1Nc1nccc(-c2cn(C)c3ccccc23)n1`, the IC50 in data set [1] came to 1.32 µM; in [2], 2.72 µM.
For `COc1ccc(NC(=O)CCN)cc1Nc1nccc(-c2cn(C)c3ccccc23)n1` the same measures were 1.46 µM and 1.23 µM.
Turning to `Cn1cc(-c2ccnc(Nc3ccc(N4CCOCC4)cc3)n2)c2ccccc21`, the IC50 is 7 µM in data set [1] and over 10 µM in data set [2].
In the same order, the values of `CN(C)CCOc1ccc(Nc2nccc(-c3cn(C)c4ccccc34)n2)cc1` are 1.29 µM and 1.75 µM.
As to `CN(C)CCN(C)c1ccc(Nc2nccc(-c3cn(C)c4ccccc34)n2)cc1`, the IC50 amounted to 1.06 µM in data set [1] and 1.55 µM in data set [2].
With `Cn1cc(-c2ccnc(Nc3cccc(NC(=O)CCN)c3)n2)c2ccccc21`, the IC50 in [1] stood at 4.99 µM; in data set [2], 4.77 µM.
`COc1ccc(NC(=O)CN)cc1Nc1nccc(-c2cn(C)c3ccccc23)n1`: the 50% inhibitory concentration (IC50) is 3.76 µM in data set [1] and 5.28 µM in [2].
As to `COc1cc(N(C)CCN(C)C)ccc1Nc1nccc(-c2cn(C)c3ccccc23)n1`, the values for the IC50 in data set [1] and in data set [2] were 1.76 µM and 1.61 µM, respectively.
As to `COc1cc(OCCN(C)C)c(NC(=O)CN)cc1Nc1nccc(-c2cn(C)c3ccccc23)n1`, the concentration for half-maximal inhibition (IC50) in data set [1] was 1.5 µM; in [2], 5.45 µM.
With `COc1cc2c(cc1Nc1nccc(-c3cn(C)c4ccccc34)n1)NC(=O)CCCCCN2CCN(C)C`, the IC50 in data set [1] was found to be 2.36 µM; in data set [2] it was 2.84 µM.
Turning to `COc1cc(N2CCC(N(C)C)CC2)c(NC(=O)CO)cc1Nc1nccc(-c2cn(C)c3ccccc23)n1`, the results for the IC50 in [1] and in data set [2] were 0.46 µM and 0.48 µM, respectively.
On to `CN(C)C1CCN(c2ccc(Nc3nccc(-c4cn(C)c5ccccc45)n3)cc2NS(=O)(=O)C2CC2)CC1`, for which the IC50 is 0.24 µM in [1]; 2.49 µM in [6]; 0.22 µM in data set [7]; 0.25 µM in data set [2]; 1.92 µM in data set [10]; 1.42 µM in data set [12].
For the compound `Cn1cc(-c2ccnc(Nc3ccc(N4CCC(N5CCOCC5)CC4)cc3)n2)c2ccccc21`, the IC50 in data set [1] was 1.71 µM; in [2], 5.74 µM.
For the compound `CN1CCN(C2CCN(c3ccc(Nc4nccc(-c5cn(C)c6ccccc56)n4)cc3)CC2)CC1`, the IC50 amounted to 0.84 µM in data set [1] and 1.31 µM in data set [2].
Take `C=CC(=O)Nc1cc(Nc2nccc(-c3cn(C)c4ccccc34)n2)c(OC)cc1N(C)CCN(C)C` [OSIMERTINIB]: the IC50 in data set [1] worked out at […]; in data set [6], […]; in data set [7], 0.001 µM; in [10], 3.06 µM.
For the compound `CN(C)CCN(c1ccc(Nc2nccc(-c3cn(C)c4ccccc34)n2)cc1)S(C)(=O)=O`, the figures for the IC50 in data set [1] and in data set [2] were 0.43 µM and 0.5 µM, respectively.
In the case of `COc1cc(N2CCC(N3CCN(C)CC3)CC2)ccc1Nc1nccc(-c2cn(C)c3ccccc23)n1`, the IC50 in [1] stood at 1.17 µM; in data set [2] it was 1.39 µM.
With `COc1cc(N2CCC(N3CCN(C)CC3)CC2)ccc1Nc1ncc(Cl)c(Nc2ccccc2P(C)(C)=O)n1` [BRIGATINIB], the Activity in [13] is 26.61%; in data set [14], 0.01%; in data set [15], 65.74%; in data set [16] it was 7.32%; in [17], “Non-Toxic”; in data set [18], 1.71%. Further, the figures for the Activity in data set [19], in [20] and in [21] were 0.32%, 92.51% and 6.75%, respectively. The values for the IC50 in data set [1] and in [2] were 0.35 µM and 0.45 µM, respectively.
For `COc1cc(N(C)CCN(C)C)c(NC(=O)CNC(=O)OC(C)(C)C)cc1Nc1nccc(-c2cn(C)c3ccccc23)n1`, the IC50 was 1.29 µM in data set [1] and 1.28 µM in data set [2].
Consider `CN1CCN(c2ccc(Nc3nccc(-c4cn(C)c5ccccc45)n3)cc2)CC1`, for which the figures for the IC50 in data set [1] and in data set [2] were 0.38 µM and 0.54 µM, respectively.
In the same order, the values of `COc1cc(N(C)CCN(C)C)c(NC(=O)CCN)cc1Nc1nccc(-c2cn(C)c3ccccc23)n1` are 1.49 µM and 1.63 µM.
